This is an account of results in patent US11964979B2, “Camsylate salts of triazolopyrazine derivatives” (ABION Inc., priority 2022, dated 2024).

Converted amounts (≈) assume the structure as drawn. “And” between values parts separate entries of the source, which are not always exact repeats. Equal entries are not always repeated. Where two headings read alike, the source gives them in different places.

Data set [1] in a line: Physical and chemical stability study up to 2 years (XRPD, TGMS, HPLC).
Data set [2] is described as follows: DVS analysis (hygroscopicity). In kind it is physicochemical. The method, then:
Differences in hygroscopicity (moisture uptake) of the various forms of a solid material provided a measure of their relative stability at increasing relative humidity. Moisture sorption isotherms of small samples were obtained using a DVS-1 system from Surface Measurement Systems (London, UK); this instrument is suitable for use with as little as a few milligrams of sample, with an accuracy of 0.1 μg. The relative humidity was varied during sorption-desorption-sorption (40-95-0-40% RH) at a constant temperature of 25° C., typically with a hold time of 60 minutes per step (10% relative humidity step). At the end of the DVS experiment the sample was measured by XRPD.
The hygroscopicity was classified according to the European Pharmacopoeia Hygroscopicity classification.

The conditions of data set [3]: 40° C./75% RH.
Experimental: Subsequently, all the solids were exposed to accelerated aging conditions (AAC) at 40° C./75% RH for 48 hours and re-measured by HT-XRPD to test their physical stability.
Data set [4] can be described thus: Thermal stability study in solution (LCMS). The conditions noted are these: for Area % (LCMS): approx. 0.3 mg/mL. In kind it is physicochemical. The protocol:
A thermal stability study was performed on ABN-401 to investigate the chemical stability of the starting material in solution when exposed to elevated temperatures. Solutions of ABN-401 were prepared in acetone, 1,2-dimethoxyethane, and acetonitrile with a concentration of approximately 0.3 mg/mL. Solutions were left at RT for 1 hour and successively, two aliquots of each solution were taken and heated at 50° C. and 80° C. for one hour. All these solutions were analyzed by LCMS. Additionally, the samples kept at RT were remeasured by LCMS after 24 hours to check the chemical degradation over time.
Starting material characterization and purity assessment of the novel crystalline forms of the free base: • Method name: S19061_03.M • Sample: • Concentration: 0.3 mg/ml • Diluent: Acetonitrile

Data set [5] can be described thus: Approximate solubility determination by adding aliquots of solvent. Type of data set: physicochemical. The conditions noted are these: thermodynamic from solid. The protocol: The approximate solubility was determined by adding small aliquots of solvent (50 μL up to 1 mL, 100 μL above 1 mL) to the solid starting material until complete dissolution was observed or a maximum volume of 4 mL was reached. Afterwards the solvents were evaporated and obtained solids were analyzed by HT-XRPD.

With `CC1(C)[C@@H]2CC[C@]1(CS(=O)(=O)O)C(=O)C2.CN1CCN(Cc2ccc(-c3cnc(N4CCO[C@H](Cn5nnc6ncc(-c7cnn(C)c7)nc65)C4)nc3)cc2)CC1` (stereo in doubt) [Camp2], the “API chemical purity (area %)” value in data set [1] (25° C./60% RH for 1 month) is 99.8%; in data set [1] (25° C./60% RH for 3 months), 99.7%; in data set [1] (25° C./60% RH for 15 months) it was 99.5% and 97.3%; in data set [1] (25° C./60% RH for 24 months), 100%; in data set [1] (40° C./75% RH for 1 month) it was 99.8%; in data set [1] (40° C./75% RH for 3 months), 99.3%. Further, the “API chemical purity (area %)” value is on record as 93.7% in data set [1] (40° C./75% RH for 15 months) and 88.6% in data set [1] (40° C./75% RH for 24 months). Further, the “Mass loss attributed to water (TGA/TGMS)” value was found to be 1.6% in data set [1] (25° C./60% RH for 1 month); 1.6% in data set [1] (25° C./60% RH for 3 months); 1.6% in data set [1] (25° C./60% RH for 15 months); 1.9% in data set [1] (25° C./60% RH for 24 months); 1.8% in data set [1] (40° C./75% RH for 1 month); 7.1% in data set [1] (40° C./75% RH for 3 months). Further, the “Mass loss attributed to water (TGA/TGMS)” value in data set [1] (40° C./75% RH for 15 months) came out at 6.9%; in data set [1] (40° C./75% RH for 24 months), 6.7%. Further, the “Solid form by HT-XRPD after exposure” value in data set [1] (25° C./60% RH for 1 month (GEN50)) is “Camp2”; in data set [1] (25° C./60% RH for 3 months (GEN51)), “Camp2”; in data set [1] (25° C./60% RH for 15 months (GEN52)), “Camp2”; in data set [1] (25° C./60% RH for 24 months (GEN53)) it was “Camp2”; in data set [1] (40° C./75% RH for 1 month (GEN54)), “Camp2”; in data set [1] (40° C./75% RH for 3 months (GEN55)), “Camp4”. Also, the “Solid form by HT-XRPD after exposure” value in data set [1] (40° C./75% RH for 15 months (GEN56)) is reported as “Camp4”; in data set [1] (40° C./75% RH for 24 months (GEN57), E = Form E of the free base) it was “Camp3+E”. Moreover, the “Solid form conversion (HT-XRPD)” value in data set [1] (25° C./60% RH up to 24 months) is reported as “no solid form conversion occurred”; in data set [1] (40° C./75% RH), “solid form conversions were observed after 3 months”. Besides, the “Form identified by HT-XRPD in the solid recovered after DVS” value in data set [2] was “Camp4”. Besides, the “Change in mass at 80% RH” value in data set [2] (25° C.) came out at 1.4%. In data set [2] (based on change in mass at 80% RH), the “Hygroscopicity (European Pharmacopeia Hygroscopicity classification)” value was “slightly hygroscopic”. This molecule gave a Water vapor uptake in data set [2] (first sorption half-cycle, at 95% RH, 25° C.) of 15.6%. Also, the Change in mass in data set [2] (first sorption half-cycle, range 40→95% RH, 25° C.) was found to be 14.1%; in data set [2] (last sorption half-cycle, range 0→40% RH, 25° C.), 6.6%. Further, the “Reversibility of water uptake” value in data set [2] (sorption-desorption-sorption 40-95-0-40% RH) was “irreversible”. For the same molecule, the “Form after AAC” value was “Camp2” in data set [3] (Exp. ID GEN17, Ethanol) and “Camp2” in data set [3] (Exp. ID SSm60, ACN, API:CI 1:1).

For the molecule `CN1CCN(Cc2ccc(-c3cnc(N4CCOC(Cn5nnc6ncc(-c7cnn(C)c7)nc65)C4)nc3)cc2)CC1` (stereo not shown) [ABN-401], the “Area % (LCMS)” value in data set [4] (1,2-dimethoxyethane solution, 1 h/50° C.) is 98.6%; in data set [4] (1,2-dimethoxyethane solution, 1 h/80° C.), 97.7%; in data set [4] (1,2-dimethoxyethane solution, 1 h/RT) it was 99.0%; in data set [4] (1,2-dimethoxyethane solution, 24 h/RT), 98.8%; in data set [4] (ACN solution, 1 h/50° C.) it was 99.0%; in data set [4] (ACN solution, 1 h/80° C.), 98.7%. The “Area % (LCMS)” value in data set [4] (ACN solution, 1 h/RT) worked out at 99.0%; in data set [4] (ACN solution, 24 h/RT), 98.1%; in data set [4] (Acetone solution, 1 h/50° C.), 99.0%; in data set [4] (Acetone solution, 1 h/80° C.) it was 99.0%; in data set [4] (Acetone solution, 1 h/RT), 98.8%; in data set [4] (Acetone solution, 24 h/RT) it was 98.5%. Moreover, in data set [4] (samples kept at 50° C. and 80° C. for one hour, acetone, 1,2-dimethoxyethane, acetonitrile), the “Chemical degradation in solution” value was “No significant chemical degradation was observed”. Besides, the solubility is 12.7 to 13.8 mg/mL (≈ 22.4 to 24.4 mM) in data set [5] (organic solvent or mixture, 1,2-Dimethoxyethane (SAS6)); over 199 mg/mL in data set [5] (organic solvent or mixture, 1,4-Dioxane (SAS4)); 22.1 to 25.6 mg/mL (≈ 39 to 45.2 mM) in data set [5] (organic solvent or mixture, Acetone (SAS1)); over 311 mg/mL in data set [5] (organic solvent or mixture, Chloroform (SAS3)); 4.4 to 4.6 mg/mL (≈ 7.76 to 8.12 mM) in data set [5] (organic solvent or mixture, Ethyl acetate (SAS5)); under 2.7 mg/mL in data set [5] (organic solvent or mixture, Isopropanol (SAS7)). In addition, the solubility in data set [5] (organic solvent or mixture, Methanol (SAS8)) was under 2.9 mg/mL; in data set [5] (organic solvent or mixture, Tetrahydrofuran (SAS9)), over 181 mg/mL; in data set [5] (Water (SAS10)), under 3.1 mg/mL. Further, the “Chemical degradation (LCMS)” value in data set [1] (24 months at 25° C./60% RH and at 40° C./75% RH) is “chemical degradation is occurring at both conditions”. Besides, the “Mass loss attributed to water (TGA/TGMS)” value worked out at 3.7% in data set [1] (25° C./60% RH for 1 month); 4.1% in data set [1] (25° C./60% RH for 3 months); 3.3% in data set [1] (25° C./60% RH for 15 months); 5.3% in data set [1] (25° C./60% RH for 24 months); 4.0% in data set [1] (40° C./75% RH for 1 month); 4.4% in data set [1] (40° C./75% RH for 3 months). In addition, the “Mass loss attributed to water (TGA/TGMS)” value came to 3.7% in data set [1] (40° C./75% RH for 15 months) and 5.2% in data set [1] (40° C./75% RH for 24 months). The entries for the “API chemical purity (area %)” value in data set [1] (25° C./60% RH for 24 months) and in data set [1] (40° C./75% RH for 24 months) were 87.2% and 90.7%, respectively.

Turning to `CC1(C)[C@@H]2CC[C@]1(CS(=O)(=O)O)C(=O)C2.CN1CCN(Cc2ccc(-c3cnc(N4CCO[C@H](Cn5nnc6ncc(-c7cnn(C)c7)nc65)C4)nc3)cc2)CC1` [Camp1], the “Form after AAC” value is on record as “Camp1” in data set [3] (Exp. ID SSm14, Acetone, API:CI 1:1) and “Camp1” in data set [3] (Exp. ID SSm37, 1,2-Dimethoxyethane, API:CI 1:1).

Consider `CC1(C)[C@@H]2CC[C@]1(CS(=O)(=O)O)C(=O)C2.CN1CCN(Cc2ccc(-c3cnc(N4CCO[C@H](Cn5nnc6ncc(-c7cnn(C)c7)nc65)C4)nc3)cc2)CC1` [Camp4], for which the “Form after AAC” value in data set [3] (Exp. ID GEN16, Chloroform) is recorded as “Camp4”; in data set [3] (Exp. ID GEN19, Heptane), “Camp4”; in data set [3] (Exp. ID GEN23, IPA/Water (97/3), lc = low crystalline), “lc”; in data set [3] (Exp. ID GEN25, 1,4-Dioxane/Water (96/4)) it was “Camp4”; in data set [3] (Exp. ID GEN26, THF/Water (95/5)) it was “Camp4”.

Consider `CC1(C)[C@@H]2CC[C@]1(CS(=O)(=O)O)C(=O)C2.CN1CCN(Cc2ccc(-c3cnc(N4CCO[C@H](Cn5nnc6ncc(-c7cnn(C)c7)nc65)C4)nc3)cc2)CC1` [Camp5], for which the “Form after AAC” value in data set [3] (Exp. ID GEN21, THF) was “Camp2”.
